In the supplement of paper PMC10627819:

Assays:
B. subtilis 168 [1] = experiment: fitness (endpoint OD595 vs no drug) (fraction); higher = more growth
Summary of the method: (§1)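 Bacterial growth was followed in 384-well plates seeded at OD595 0.01, with 30 µl per well, or 55 µl for S. pneumoniae, in TSB, LB Lennox or CY at 37 °C. OD595 was read every 30 min for 14 h, and each reading had the first reading subtracted as background. Fitness is the background-corrected optical density at entry into stationary phase divided by the robust mean of the no-drug control wells. This ratio is capped at 1.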

S. aureus Newman [2] = experiment: as above; details: one replicate
Summary of the method: as §1

B. subtilis 168 [3] = experiment: Bliss interaction score (quartile over a dose matrix) (fitness difference); higher = more antagonism (negative = synergy)
Summary of the method: (§2)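 Quartiles summarise the Bliss score over technical, biological and donor/recipient replicates, where the score is observed minus expected fitness under a product model. Expected fitness uses single-drug values inferred from combination data. Fitness is OD595 at entry into stationary phase over the plate's robust no-drug mean, capped at 1.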

S. aureus DSM 20231 = experiment: as above
Summary of the method: as §2

S. aureus Newman [4] = experiment: as above
Summary of the method: as §2

S. pneumoniae D39V = experiment: as above
Summary of the method: as §2
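For Bliss interaction score (quartile over a dose matrix) in this document: first quartile when negative (synergy) and third quartile when positive (antagonism).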

CO/N=C(\C(=O)N[C@@H]1C(=O)N2C(C(=O)O)=C(COC(N)=O)CS[C@H]12)c1ccco1 [Cefuroxime] + CN[C@@H]1[C@H](O[C@H]2[C@H](O[C@H]3[C@H](O)[C@@H](O)[C@H](N=C(N)N)[C@@H](O)[C@@H]3N=C(N)N)O[C@@H](C)[C@]2(O)C=O)O[C@@H](CO)[C@H](O)[C@H]1O [Streptomycin]
fitness
Details | first compound 0.04875 µg/mL | first compound 0.0975 µg/mL | first compound 0.195 µg/mL | first compound 1.562 µg/mL | first compound 3.125 µg/mL | first compound 6.25 µg/mL
B. subtilis 168 [1], partner 2 µg/mL | 0.722 | 0.664 | 0.6 | 0.132 | 0.088 | 0.0549
B. subtilis 168 [1], partner 4 µg/mL | – | – | 0.164 | 0.0266 | 0.015 | 0.0149
B. subtilis 168 [1], partner 8 µg/mL | 0.0543 | 0.0254 | 0.0361 | 0.032 | 0.0257 | 0.0148
S. aureus Newman [2], partner 2 µg/mL | 0.826 | 0.746 | 0.814 | – | – | –
S. aureus Newman [2], partner 4 µg/mL | 0.944 | ≥ 1 | 0.781 | – | – | –
S. aureus Newman [2], partner 8 µg/mL | 0.994 | 0.963 | 0.81 | – | – | –

Details | Bliss interaction score
B. subtilis 168 [3] | -0.123
S. aureus DSM 20231 | -0.357
S. aureus Newman [4] | 0.335
S. pneumoniae D39V | 0.0384

CO/N=C(\C(=O)N[C@@H]1C(=O)N2C(C(=O)O)=C(COC(N)=O)CS[C@H]12)c1ccco1 [Cefuroxime] + COc1c(N2C[C@@H]3CCCN[C@@H]3C2)c(F)cc2c(=O)c(C(=O)O)cn(C3CC3)c12 [Moxifloxacin]
fitness, B. subtilis 168 [1], one replicate
Details | first compound 0.04875 µg/mL | first compound 0.0975 µg/mL | first compound 0.195 µg/mL | first compound 1.562 µg/mL | first compound 3.125 µg/mL | first compound 6.25 µg/mL
partner 0.0312 µg/mL | 0.0482 | 0.0451 | – | – | – | –
partner 0.0625 µg/mL | 0.0309 | 0.0348 | – | – | – | –
partner 0.125 µg/mL | 0.0185 | 0.0123 | – | – | – | –
partner 2 µg/mL | 0.0399 | 0.0244 | 0.0298 | 0.0359 | 0.0258 | 0.0141
partner 4 µg/mL | 0.0357 | 0.0206 | 0.0189 | 0.0269 | 0.0126 | 0.0118
partner 8 µg/mL | 0.0177 | 0.0063 | 0.0088 | 0.02 | 0.0184 | 0.011

fitness
Details | first compound 0.04875 µg/mL | first compound 0.0975 µg/mL | first compound 0.195 µg/mL | first compound 0.39 µg/mL | first compound 0.78 µg/mL
B. subtilis 168 [1], partner 0.0312 µg/mL | – | – | 0.0354 | 0.0276 | 0.0247
B. subtilis 168 [1], partner 0.0625 µg/mL | – | – | 0.0331 | 0.0172 | 0.0291
B. subtilis 168 [1], partner 0.125 µg/mL | – | – | 0.0376 | 0.0259 | 0.0192
S. aureus Newman [2], partner 0.0075 µg/mL | 0.631 | 0.593 | 0.595 | – | –
S. aureus Newman [2], partner 0.015 µg/mL | 0.439 | 0.4 | 0.445 | – | –
S. aureus Newman [2], partner 0.03 µg/mL | 0.034 | 0.0177 | 0.0236 | – | –

Details | Bliss interaction score
B. subtilis 168 [3] | 0.0178
S. aureus DSM 20231 | -0.0502
S. aureus Newman [4] | -0.14
S. pneumoniae D39V | 0.0473
